According to patent publication US20230312587A1, “PTERIDINONE COMPOUNDS AND USES THEREOF” (Vertex Pharmaceutical Incorporated, priority 2018, published 2023):
pIC50: −log10 of the molar value.

Each compound was assayed on β-catenin-TCF-mediated reporter transcription activity in Colo 205 cells (assay: Colo 205 reporter assay (TCF/LEF luciferase)). Settings: Colo 205 TCF/LEF luciferase reporter, five hours after addition of compound; read-out: TCF reporter Colo205 IC50.
Type: cell-based
Outline: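 Luciferase signal from a TCF/LEF-driven reporter, stably integrated in Colo 205 colon cancer cells, was measured 5 h after compound addition.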
`Cc1nc(N[C@H]2C[C@@H](Cn3nccc3C(F)(F)F)C2)nc2c1NC(=O)[C@H](CO)N2C` [Compound 743, (S)-7-(hydroxymethyl)-4,8-dimethyl-2-(((1s,3R)-3-((5-(trifluoromethyl)-1H-pyrazol-1-yl)methyl)cyclobutyl)amino)-7,8-dihydropteridin-6(5H)-one] showed a pIC50 of 5.30 to 6.00. `Cc1nc(N[C@H]2C[C@H](Oc3cc(F)c(F)c(F)c3)C2)nc2c1NC(=O)[C@H]([C@H](C)OC(C)(C)C)N2C` [Compound 745, (S)-7-((S)-1-(tert-butoxy)ethyl)-4,8-dimethyl-2-(((1r,3S)-3-(3,4,5-trifluorophenoxy)cyclobutyl)amino)-7,8-dihydropteridin-6(5H)-one] showed a pIC50 of 6.00 to 6.52. With “(7R)-5,7,8-triethyl-7-methyl-2-(((1-(3,4,5-trifluorobenzyl)-1H-pyrazol-4-yl)methyl)amino)-7,8-dihydropteridin-6(5H)-one [Compound 235]” the pIC50 was > 6.52. In the case of “(7S)-4,5,7,8-tetramethyl-2-((trans-3-(3,4,5-trifluorophenoxy)cyclopentyl)amino)-7,8-dihydropteridin-6(5H)-one [Compound 269]”, the pIC50 was > 6.52. With “(7S)-7-(2-hydroxyethyl)-4-methyl-2-(((1-((6-(trifluoromethyl)pyridin-3-yl)methyl)-1H-pyrazol-4-yl)methyl)amino)-7,8-dihydropteridin-6(5H)-one [Compound 440]” the pIC50 was > 6.52. With “(S)-7-((S)-1-(tert-butoxy)ethyl)-4,8-dimethyl-2-(((1-(3,4,5-trifluorobenzyl)-1H-pyrazol-4-yl)methyl)amino)-7,8-dihydropteridin-6(5H)-one [Compound 747]” the pIC50 was 6.00 to 6.52.

Same assay, conditions: Homo sapiens, COLO 205, 5 h, Colo 205 TCF/LEF luciferase reporter, five hours after addition of compound; read-out: TCF reporter Colo205 IC50
In the case of `CC[C@H]1C(=O)Nc2c(C)nc(NC3CN(C(=O)c4cc(F)c(F)c(F)c4)C3)nc2N1C` [Compound 739, (S)-7-ethyl-4,8-dimethyl-2-((1-(3,4,5-trifluorobenzoyl)azetidin-3-yl)amino)-7,8-dihydropteridin-6(5H)-one], the pIC50 was 6.00 to 6.52. `Cc1nc(NC2CN(C(=O)c3cc(F)c(F)c(F)c3)C2)nc2c1NC(=O)[C@H](C)N2C` [Compound 740, (S)-4,7,8-trimethyl-2-((1-(3,4,5-trifluorobenzoyl)azetidin-3-yl)amino)-7,8-dihydropteridin-6(5H)-one] showed a pIC50 of 6.00 to 6.52. Work on `Cc1nc(NCc2cnn(Cc3cc(F)c(F)c(F)c3)c2)nc2c1NC(=O)[C@H](COC(C)(C)C)N2C` [Compound 741, (S)-7-(tert-butoxymethyl)-4,8-dimethyl-2-(((1-(3,4,5-trifluorobenzyl)-1H-pyrazol-4-yl)methyl)amino)-7,8-dihydropteridin-6(5H)-one] yielded a pIC50 of 6.00 to 6.52. `Cc1nc(NCc2cnn(Cc3ccc(C(F)(F)F)nc3)c2)nc2c1NC(=O)[C@H]([C@H](C)OC(C)(C)C)N2C` [Compound 742, (S)-7-((S)-1-(tert-butoxy)ethyl)-4,8-dimethyl-2-(((1-((6-(trifluoromethyl)pyridin-3-yl)methyl)-1H-pyrazol-4-yl)methyl)amino)-7,8-dihydropteridin-6(5H)-one] showed a pIC50 of 5.30 to 6.00. `Cc1nc(NCc2cnn(Cc3ccc(C(F)(F)F)nc3)c2)nc2c1NC(=O)[C@H]([C@@H](C)O)N2C` [Compound 744, (S)-7-((R)-1-hydroxyethyl)-4,8-dimethyl-2-(((1-((6-(trifluoromethyl)pyridin-3-yl)methyl)-1H-pyrazol-4-yl)methyl)amino)-7,8-dihydropteridin-6(5H)-one] showed a pIC50 of 6.00 to 6.52. For `COc1c(F)cc(Cn2cc(CNc3nc(C)c4c(n3)N(C)[C@@H]([C@H](C)OC(C)(C)C)C(=O)N4)cn2)cc1F` [Compound 746, (S)-7-((S)-1-(tert-butoxy)ethyl)-2-(((1-(3,5-difluoro-4-methoxybenzyl)-1H-pyrazol-4-yl)methyl)amino)-4,8-dimethyl-7,8-dihydropteridin-6(5H)-one], the pIC50 was 6.00 to 6.52. Work on `C=C1C(=O)Nc2c(C)nc(NCc3cnn(Cc4ccc(C(F)(F)F)nc4)c3)nc2N1C` [Compound 749, 4,8-dimethyl-7-methylene-2-(((1-((6-(trifluoromethyl)pyridin-3-yl)methyl)-1H-pyrazol-4-yl)methyl)amino)-7,8-dihydropteridin-6(5H)-one] yielded a pIC50 of 5.30 to 6.00. With `CC[C@@]1(C)C(=O)N(C)c2cnc(NCc3cnn(Cc4ccc(F)cc4)c3)nc2N1C` [Compound I-226] the pIC50 was > 6.52. In the case of `Cc1nc(N[C@H]2CCN(C(=O)c3cc(F)c(F)c(F)c3)C2)nc2c1NC(=O)[C@H](C(C)C)N2C` [Compound I-509], the pIC50 was 6.00 to 6.52. In the case of `Cc1nc(N[C@@H]2CCN(C(=O)c3cc(F)c(F)c(F)c3)C2)nc2c1NC(=O)[C@H](C(C)C)N2C` [Compound I-541], the pIC50 was 6.00 to 6.52.

Same assay, conditions: Homo sapiens, COLO 205, 5 h, R-isomer at C2 (corresponding to C2 S-isomer); Colo 205 TCF/LEF luciferase reporter, 5 h; read-out: TCF reporter Colo205 IC50
For `C[C@@H]1C(=O)N(C)c2cnc(NCc3cnn(Cc4ccc(F)cc4)c3)nc2N1C` [Compound I-809], the pIC50 was 6.00 to 6.52. With `CCN1c2nc(NCc3cnn(Cc4ccc(F)cc4)c3)ncc2N(C)C(=O)[C@H]1C` [Compound I-860] the pIC50 was > 6.52. With `Cc1nc(NCc2cnn(Cc3ccc(F)cc3)c2)nc2c1N(C)C(=O)[C@@H](C)N2C` [Compound I-866] the pIC50 was 6.00 to 6.52. With `C[C@@H]1C(=O)Nc2cnc(NCc3cnn(Cc4cc(F)c(F)c(F)c4)c3)nc2N1C` [Compound I-896] the pIC50 was 6.00 to 6.52. `CCC[C@@H]1C(=O)N(C)c2cnc(NCc3cnn(Cc4ccc(F)cc4)c3)nc2N1C` [Compound I-984] gave a pIC50 of 6.00 to 6.52. In the case of `CCN1C(=O)[C@@H](C)N(CC)c2nc(NCc3cnn(Cc4ccc(F)cc4)c3)ncc21` [Compound I-985], the pIC50 was > 6.52. For `CC[C@@H]1C(=O)N(CC)c2cnc(NCc3cnn(Cc4ccc(F)cc4)c3)nc2N1C` [Compound I-987], the pIC50 was > 6.52. Compound `CCN1C(=O)[C@@H](C)N(C(C)C)c2nc(NCc3cnn(Cc4ccc(F)cc4)c3)ncc21` [Compound I-1144] has a pIC50 of 6.00 to 6.52. Work on `CC[C@@H]1C(=O)N(C)c2cnc(NCc3cnn(Cc4ccc(F)cc4)c3)nc2N1C(C)C` [Compound I-1146] yielded a pIC50 of 6.00 to 6.52. With `COc1c(F)cc(Cn2cc(CNc3nc(C)c4c(n3)N(C)[C@H](C)C(=O)N4)cn2)cc1F` [Compound I-1205] the pIC50 was > 6.52. For `Cc1nc(NCc2cnn(Cc3cc(F)c(F)c(F)c3)c2)nc2c1N(C)C(=O)[C@@H](C)N2C` [Compound I-1229], the pIC50 was > 6.52. With `CCC[C@@H]1C(=O)N(C)c2cnc(NCc3cnn(Cc4cc(F)c(F)c(F)c4)c3)nc2N1C` [Compound I-1348] the pIC50 was > 6.52. With `CCN1C(=O)[C@@H](C)N(CC)c2nc(NCc3cnn(Cc4cc(F)c(F)c(F)c4)c3)ncc21` [Compound I-1349] the pIC50 was > 6.52. Compound `Cc1nc(NCc2cnn(Cc3ccc(C(F)(F)F)nc3)c2)nc2c1N(C)C(=O)[C@@H](C)N2C` [Compound I-1363] has a pIC50 of 6.00 to 6.52. `CCN1C(=O)[C@@H](C)N(C(C)C)c2nc(NCc3cnn(Cc4cc(F)c(F)c(F)c4)c3)ncc21` [Compound I-1463] was tested, and the pIC50 was > 6.52. For `CC[C@@H]1C(=O)N(C)c2cnc(NCc3cnn(Cc4cc(F)c(F)c(F)c4)c3)nc2N1C(C)C` [Compound I-1465], the pIC50 was > 6.52. Work on `Cc1nc(NCc2cnn(Cc3cc(C(F)(F)F)nn3C)c2)nc2c1NC(=O)[C@@H](C1CC1)N2C` [Compound I-1498] yielded a pIC50 of 6.00 to 6.52. For `CC[C@@H]1C(=O)Nc2cnc(NCc3cnn(Cc4ccc(F)cc4)c3)nc2N1C` [Compound I-1634], the pIC50 was ≤ 5.30. `CC[C@@H]1C(=O)Nc2c(C)nc(NCc3cnn(Cc4ccc(C(F)(F)F)nc4)c3)nc2N1C` [Compound I-1635] gave a pIC50 of 5.30 to 6.00. `Cc1nc(NCc2cnn(Cc3ccc(C(F)(F)F)nc3)c2)nc2c1NC(=O)[C@@H](C)N2C` [Compound I-1636] was tested, and the pIC50 was 5.30 to 6.00. `Cc1nc(NCc2cnn(Cc3ccncc3C(F)(F)F)c2)nc2c1NC(=O)[C@@H](C)N2C` [Compound I-1637] was tested, and the pIC50 was 5.30 to 6.00. `CCC[C@@H]1C(=O)Nc2c(C)nc(NCc3cnn(Cc4ccc(C(F)(F)F)nc4)c3)nc2N1C` [Compound I-1638] showed a pIC50 of 5.30 to 6.00. With `Cc1nc(NCc2cnn(Cc3ccc(C(F)(F)F)nc3)c2)nc2c1NC(=O)[C@@H](C1CC1)N2C` [Compound I-1639] the pIC50 was 5.30 to 6.00. In the case of `CC(=O)N(Cc1cnn(Cc2ccc(C(F)(F)F)nc2)c1)c1nc(C)c2c(n1)N(C)[C@H](C)C(=O)N2` [Compound I-1640], the pIC50 was ≤ 5.30. `Cc1nc(NCc2cnn(Cc3ccc(F)nc3)c2)nc2c1NC(=O)[C@@H](C1CC1)N2C` [Compound I-1641] was tested, and the pIC50 was ≤ 5.30. With `Cc1nc(NCc2cnn(Cc3ccc(OC(F)F)nc3)c2)nc2c1NC(=O)[C@@H](C(C)C)N2C` [Compound I-1642] the pIC50 was 5.30 to 6.00. `Cc1cc(F)ncc1Cn1cc(CNc2nc(C)c3c(n2)N(C)[C@H](C(C)C)C(=O)N3)cn1` [Compound I-1643] gave a pIC50 of 5.30 to 6.00. Compound `Cc1nc(NCc2cnn(Cc3ccc(Cl)nc3)c2)nc2c1N(C)C(=O)[C@@H](CCO)N2C` [Compound I-1644] has a pIC50 of 5.30 to 6.00. For `Cc1nc(NCc2cnn(Cc3ccc(C(F)(F)F)nc3)c2)nc2c1NC(=O)[C@@H](CC(F)(F)F)N2C` [Compound I-1645], the pIC50 was 5.30 to 6.00. `CC[C@@H]1C(=O)Nc2cnc(NCc3cnn(Cc4ccc(C(F)(F)F)nc4)c3)nc2N1C(C)C` [Compound I-1646] was tested, and the pIC50 was ≤ 5.30. `COCC[C@@H]1C(=O)Nc2c(C)nc(NCc3cnn(Cc4ccc(C(F)(F)F)nc4)c3)nc2N1C` [Compound I-1647] was tested, and the pIC50 was 5.30 to 6.00. `COCC[C@@H]1C(=O)Nc2c(C)nc(NCc3cnn(Cc4cc(C(F)(F)F)nn4C)c3)nc2N1C` [Compound I-1648] was tested, and the pIC50 was ≤ 5.30. `Cc1nc(NCc2cnn(Cc3ccnc(C#N)c3)c2)nc2c1NC(=O)[C@@H](C)N2C` [Compound I-1649] was tested, and the pIC50 was ≤ 5.30. `Cc1nc(N[C@H]2C[C@H](Oc3cc(F)c(F)c(F)c3)C2)nc2c1NC(=O)[C@@H](CO)N2C` [Compound I-1650] showed a pIC50 of 5.30 to 6.00.
